Assay results from US9321809B2, “Macrocyclic compounds for suppressing replication of hepatitis C virus” (Ginkgo Pharma Co., Ltd., priority 2012, dated 2016).

Each compound was assayed on HCV replicon-containing huh-7 cells (replicon 1b) (assay: HCV Replicon Assay (luciferase readout)). Conditions: Hepatitis C virus; HCV replicon 1b in huh-7 cells, 48 h incubation, 1% DMSO, luciferase signal; read-out: EC50 (EC 50 on replicon 1b).
Type: cell-based
Procedure: Compounds of formuala (I) are tested for the ability to inhibit viral replication of the Hepatitis C viruses by the following in vitro assays.
DMEM (Life Technologies #41965-039) was supplemented with 10% FBS, 2 mM L-glutamine (Life Technologies #25030-024), penicillin (100 units/ml)/streptomycin (100 micrograms/ml) (Life Technologies #15140-114), 1× non-essential amino acids (Life Technologies #11140-035).
Complete media was prepared by mixing FBS, DMEM media with Geneticin (G418). The compete media was preincubated at 37° C. in a CO2 incubator. Then, HCV replicon-containing huh-7 cells (V. Lohmann et. al. Science, 285, (1999)110-113) was taken out from 37° C. incubator. The residual medium was absorbed, and the cells were washed with PBS. After washing fluid was removed, 1 ml 0.25% trypsin/0.02% EDTA solution. The cells were washed by the above trypsin/EDTA solution to make sure that each cell was cleaned. After the trypsin/EDTA solution was absorbed, the mixture was incubated at 37° C. in a CO2 incubator for 3-5 minutes. Morphological changes were observed by inverted microscope, till the cells were detached from the wall of container completely.
3 ml of complete media was added to make the cells to suspend. The cells are counted with hematometer. Appropriate volumes of the complete media was added to adjust the cell density to 100,000/ml. Cells were plated with 100 μl of suspension at 10,000/well of 96 well plate. Plates were placed into 37° C. 5% CO2 incubator for 24 h.
Preparation of Drug Solution:
Drugs were diluted under aseptic conditions.
Stock solutions may be prepared before the assay, which means that the test compounds are dissolved in 100% DMSO to afford a final concentration of 2 mM. Before the 96 well culture was completed, the stock solution was diluted with culter media to 100 fold of the final concentration (100× solution).
96-well plates were taken out from 37° C. CO2 incubator and morphological changes were observed by inverted microscope. In a ventilator, 1 μl of 100× drug solution was added to wells of 96 well plate until the final concentration of DMSO in the mixture is 1%. The plates were incubated at 37° C. in a CO2 environment for 48 h. 30 μl of Stead-G1® Luciferase Assay System (bought from Promega) was added to each well of 96 well plates and each plate is shaken in a plate shaker for 5 minutes to ensure cells cleavaged completely. The fluorescence signal was quantitated in a Perkin-Elmer plate reader (Envision) and integral time was setted to be 2 second. The following data were achieved after recording and analyzing the data.
Compound `C=C[C@@H]1C[C@]1(NC(=O)[C@@H]1C[C@@H]2CN1C(=O)[C@H](C(C)(C)C)NC(=O)[C@H](NC(=O)OC(C)(C)C)COC/C=C/c1cccc3c1CN(C3)C(=O)O2)C(=O)NS(=O)(=O)C1CC1` [Compound IIa-3, tert-butyl N-[(1R,12E,17R,20S,23S)-20-tert-butyl-23-{[(1R,2S)-1-[(cyclopropanesulfonyl)carbamoyl]-2-ethenylcyclopropyl]carbamoyl}-3,18,21-trioxo-2,15-dioxa-4,19,22-triazatetracyclo[20.2.1.1^4,7.0^6,11]hexacosa-6,8,10,12-tetraen-17-yl]carbamate] has an EC50 of 0.05 to 0.5 µM.
With `C=C[C@@H]1C[C@]1(NC(=O)[C@@H]1C[C@@H]2CN1C(=O)[C@H](C1CCCCC1)NC(=O)[C@@H](NC(=O)OC(C)(C)C)COCCCc1cccc3c1CN(C3)C(=O)O2)C(=O)NS(=O)(=O)C1CC1` [Compound IIa-17, tert-butyl N-[(1R,17S,20S,23S)-20-cyclohexyl-23-{[(1R,2S)-1-[(cyclopropanesulfonyl)carbamoyl]-2-ethenylcyclopropyl]carbamoyl}-3,18,21-trioxo-2,15-dioxa-4,19,22-triazatetracyclo[20.2.1.1^4,7.0^6,11]hexacosa-6,8,10-trien-17-yl]carbamate] the EC50 was less than 0.01 µM.
With `CCC1C[C@]1(NC(=O)[C@@H]1C[C@@H]2CN1C(=O)[C@H](C1CCCCC1)NC(=O)[C@@H](NC(=O)OC(C)(C)C)COCCCc1cc3c(nccc3cc1OC)O2)C(=O)NS(=O)(=O)C1CC1` (stereo in doubt) [Compound IIb-6, tert-butyl N-[(3R,5S,8S,11S)-8-cyclohexyl-5-{[(1R,2S)-1-[(cyclopropanesulfonyl)carbamoyl]-2-ethylcyclopropyl]carbamoyl}-18-methoxy-7,10-dioxo-2,13-dioxa-6,9,23-triazatetracyclo[15.6.2.1^3,6.0^20,24]hexacosa-1(23),17(25),18,20(24),21-pentaen-11-yl]carbamate] the EC50 was 0.05 to 0.5 µM.
In the case of `C=C[C@@H]1C[C@]1(NC(=O)[C@@H]1C[C@@H]2CN1C(=O)[C@H](C(C)(C)C)NC(=O)[C@@H](NC(=O)OCC)COC/C=C/c1cccc3c1CN(C3)C(=O)O2)C(=O)NS(=O)(=O)C1CC1` [Compound IIa-9, ethyl N-[(1R,12E,17S,20S,23S)-20-tert-butyl-23-{[(1R,2S)-1-[(cyclopropanesulfonyl)carbamoyl]-2-ethenylcyclopropyl]carbamoyl}-3,18,21-trioxo-2,15-dioxa-4,19,22-triazatetracyclo[20.2.1.1^4,7.0^6,11]hexacosa-6,8,10,12-tetraen-17-yl]carbamate], the EC50 is reported as 0.01 to 0.05 µM.
In the case of `C=C[C@@H]1C[C@]1(NC(=O)[C@@H]1C[C@@H]2CN1C(=O)[C@H](C(C)(C)C)NC(=O)[C@@H](NC(=O)NC(C)(C)C)COC/C=C/c1cccc3c1CN(C3)C(=O)O2)C(=O)NS(=O)(=O)C1CC1` [Compound IIa-12, (1R,12E,17S,20S,23S)-20-tert-butyl-17-[(tert-butylcarbamoyl)amino]-N-[(1R,2S)-1-[(cyclopropanesulfonyl)carbamoyl]-2-ethenylcyclopropyl]-3,18,21-trioxo-2,15-dioxa-4,19,22-triazatetracyclo[20.2.1.1^4,7.0^6,11]hexacosa-6,8,10,12-tetraene-23-carboxamide], the EC50 is reported as less than 0.01 µM.
`C=C[C@@H]1C[C@]1(NC(=O)[C@@H]1C[C@@H]2CN1C(=O)[C@H](C1CCCCC1)NC(=O)[C@@H](NC(=O)OC(C)(C)C)COCCCc1cc3c(nccc3cc1OC)O2)C(=O)NS(=O)(=O)C1CC1` [Compound IIb-4, tert-butyl N-[(3R,5S,8S,11S)-8-cyclohexyl-5-{[(1R,2S)-1-[(cyclopropanesulfonyl)carbamoyl]-2-ethenylcyclopropyl]carbamoyl}-18-methoxy-7,10-dioxo-2,13-dioxa-6,9,23-triazatetracyclo[15.6.2.1^3,6.0^20,24]hexacosa-1(23),17(25),18,20(24),21-pentaen-11-yl]carbamate] gave an EC50 of less than 0.01 µM.
For `C=C[C@@H]1C[C@]1(NC(=O)[C@@H]1C[C@@H]2CN1C(=O)[C@H](C(C)(C)C)NC(=O)[C@@H](NC(=O)OCc1ccccc1)COC/C=C/c1cccc3c1CN(C3)C(=O)O2)C(=O)NS(=O)(=O)C1CC1` [Compound IIa-10, benzyl N-[(1R,12E,17S,20S,23S)-20-tert-butyl-23-{[(1R,2S)-1-[(cyclopropanesulfonyl)carbamoyl]-2-ethenylcyclopropyl]carbamoyl}-3,18,21-trioxo-2,15-dioxa-4,19,22-triazatetracyclo[20.2.1.1^4,7.0^6,11]hexacosa-6,8,10,12-tetraen-17-yl]carbamate], the EC50 was less than 0.01 µM.
`CC[C@@H]1C[C@]1(NC(=O)[C@@H]1C[C@@H]2CN1C(=O)[C@H](C1CCCCC1)NC(=O)[C@@H](NC(=O)OC(C)(C)C)COCCCc1cccc3c1CN(C3)C(=O)O2)C(=O)NS(=O)(=O)C1CC1` [Compound IIa-18, tert-butyl N-[(1R,17S,20S,23S)-20-cyclohexyl-23-{[(1R,2R)-1-[(cyclopropanesulfonyl)carbamoyl]-2-ethylcyclopropyl]carbamoyl}-3,18,21-trioxo-2,15-dioxa-4,19,22-triazatetracyclo[20.2.1.1^4,7.0^6,11]hexacosa-6,8,10-trien-17-yl]carbamate] showed an EC50 of 0.01 to 0.05 µM.
In the case of `CC[C@@H]1C[C@]1(NC(=O)[C@@H]1C[C@@H]2CN1C(=O)[C@H](C1CCCCC1)NC(=O)[C@@H](NC(=O)OC(C)(C)C)COC/C=C/c1cc3c(nccc3cc1OC)O2)C(=O)NS(=O)(=O)C1CC1` [Compound IIb-5, tert-butyl N-[(3R,5S,8S,11S,15E)-8-cyclohexyl-5-{[(1R,2R)-1-[(cyclopropanesulfonyl)carbamoyl]-2-ethylcyclopropyl]carbamoyl}-18-methoxy-7,10-dioxo-2,13-dioxa-6,9,23-triazatetracyclo[15.6.2.1^3,6.0^20,24]hexacosa-1(23),15,17(25),18,20(24),21-hexaen-11-yl]carbamate], the EC50 is reported as 0.01 to 0.05 µM.
Work on `C=C[C@@H]1C[C@]1(NC(=O)[C@@H]1C[C@@H]2CN1C(=O)[C@H](C(C)(C)C)NC(=O)[C@@H](NC(C)=O)COC/C=C/c1cccc3c1CN(C3)C(=O)O2)C(=O)NS(=O)(=O)C1CC1` [Compound IIa-7, (1R,12E,17S,20S,23S)-20-tert-butyl-N-[(1R,2S)-1-[(cyclopropanesulfonyl)carbamoyl]-2-ethenylcyclopropyl]-17-acetamido-3,18,21-trioxo-2,15-dioxa-4,19,22-triazatetracyclo[20.2.1.1^4,7.0^6,11]hexacosa-6,8,10,12-tetraene-23-carboxamide] yielded an EC50 of 0.05 to 0.5 µM.
In the case of `C=C[C@@H]1C[C@]1(NC(=O)[C@@H]1C[C@@H]2CN1C(=O)[C@H](C(C)(C)C)NC(=O)[C@@H](NC(=O)OC(C)(C)C)CCOC/C=C/c1cccc3c1CN(C3)C(=O)O2)C(=O)NS(=O)(=O)C1CC1` [Compound IIa-20], the EC50 is reported as less than 0.01 µM.
In the case of `C=C[C@@H]1C[C@]1(NC(=O)[C@@H]1C[C@@H]2CN1C(=O)[C@H](C(C)(C)C)NC(=O)[C@@H](NC(=O)OC(C)(C)C)COC/C=C/c1cc3c(nccc3cc1OC)O2)C(=O)NS(=O)(=O)C1CC1` [Compound IIb-1, tert-butyl N-[(3R,5S,8S,11S,15E)-8-tert-butyl-5-{[(1R,2S)-1-[(cyclopropanesulfonyl)carbamoyl]-2-ethenylcyclopropyl]carbamoyl}-18-methoxy-7,10-dioxo-2,13-dioxa-6,9,23-triazatetracyclo[15.6.2.1^3,6.0^20,24]hexacosa-1(23),15,17(25),18,20(24),21-hexaen-11-yl]carbamate], the EC50 is reported as less than 0.01 µM.
